According to patent US7498406B2, “Substantially cell membrane impermeable compound and use thereof” (priority 1999, dated 2009):

Key:
BCE [1] = test: Proliferation of cultured cells, 72 hr; assay type: cell-based, bovine; settings: for IC50: 72 hr
Description: (§1) FIG. 18. Inhibition of proliferation and reduction in viability of BCE cells by GSAO. 15,000 (part A and B) or 50,000 (part C and D) BCE cells per well were seeded into gelatinised 24-well culture plates and allowed to attach for 24 hr (part A, B and D) or 72 hr (part C). The media was then replaced with DMEM containing 5% BCS and 0 to 1 mM GSAO or GSAA and either 1 ng per mL FGF-2 (part A) or 10 ng per mL VEGF (part B). In part D, the media was replaced with DMEM containing 5% BCS and 1 ng per mL FGF-2 and either 10 μM GSAO or GSAA. In part C, the media was replaced with DMEM containing 5% BCS and 0 to 1 mM GSAO or GSAA. Cells were cultured for 72 hr in parts A, B and C or for discrete times up to 48 hr in part D and then dispersed and counted. The dotted line in parts A, B and C indicate the cell number in control wells containing DMEM and 5% BCS which represented no to limited proliferation. The dotted line in part D represents no change in cell number over the 48 hr. The data points and errors represent the mean and range of duplicate wells.
(§2) BCE (Folkman et al. 1979), BAE, BxPC-3 (ATCC, Bethesda, Md.), HT1080 (Jiang et al., 1999), 3T3 (ATCC, Bethesda, Md.) and BVSM (Hogg et al., 1997) cells were harvested and cultured as indicated. Cells (0.5 mL of 30,000 or 100,000 cells per mL) were seeded into gelatinized 24-well culture plates (Corning Costar, Corning, N.Y.) in Dulbecco's Modified Eagle's Medium (DMEM, JHR Bioscience, Lenexa, Kans.) containing 10% fetal calf serum (FCS, Intergen Comp., Purchase, N.Y.) and 1% Glutamine Pen-Strep (GPS, Irvine Scientific, Santa Ana, Va.) and allowed to attach for 24 hr in 10% CO2 at 37° C. […] Cells were cultured for 0 to 72 hr in 10% CO2 at 37° C. then dispersed in trypsin/EDTA (GibcoBRL, Granc Island, N.Y.), resuspended in Coulter balanced electrolyte solution and counted with a Z1 Coulter counter (Coulter Corp., Miami, Fla.) in all experiments there were two control wells containing DMEM with 1% GPS and either 5% BCS for BCE cells, 2% BCS for BAE and BVSM cells, or 2% FCS for BxPC-3, HT1080 and 3T3 cells. […]

Lewis lung tumours = test: Tumour growth in mice, subcutaneous administration; assay type: in vivo, C57Bl6/J mice; settings: 10 mg per kg per day; for inhibition of the rate of Lewis lung tumour growth: subcutaneous
Description: FIG. 25. Inhibition of human fibrosarcoma and murine Lewis lung tumour growth following systemic administration of GSAO. HT1080 or Lewis lung tumours were established in the proximal midline of female 7 to 9 week old SCID or C57Bl6/J mice, respectively. When the tumours were ˜0.1 cm^3 in volume the mice were randomised into two groups (n=5) and treated with either GSAA or GSAO at a dose of 10 mg per kg per day in 0.2 mL of PBS containing 100 mM glycine. The compounds were administered subcutaneously at a site distant from the tumour. Tumour volume and animal weight was measured every 3 days. The GSAO/GSAA HT1080 tumour volume ratio at day 17 of treatment was 0.29 (part A). The GSAO/GSAA Lewis lung tumour volume ratio at day 12 of treatment was 0.29 (part B). The data points and errors represent the mean and SE of the tumour volumes.
Female 7 to 9 week old SCID or C57Bl6/J mice were used (Massachusetts General Hospital, Boston, Mass.). Mice were held in groups of 3 to 5 at a 12 hour day and night cycle and were fed with animal chow and water ad libidum. SCID mice were anaesthetised by inhalation of isoflurane, the dorsal skin shaved and cleaned with ethanol, and a suspension of 2.5×10^6 BxPC-3 or HT1080 cells in 0.2 mL of DMEM was injected subcutaneously in the proximal midline. C57Bl6/J mice with Lewis lung carcinomas of 0.6-1.2 cm^3 volumes were sacrificed and the skin overlying the tumour was cleaned with betadine and ethanol. Tumour tissue was excised under aseptic conditions and a suspension of tumour cells in 0.9% saline was made by passage of tumour tissue through a sieve and a series of sequentially smaller 22- to 30-gauge hypodermic needles. C57Bl6/J mice were anaesthetised and prepared as for SCID mice and a suspension of Lewis lung carcinoma cells in 0.2 mL of saline was injected subcutaneously in the proximal midline. […] The tumours were measured in two diameters and tumour volume was calculated using the relationship, tumour volume=a×b^2×0.52, where a is the longest and b the shortest diameters in cm. […] Tumour volume and animal weight was measured every 3 days. […]

BAE = test: Viability of cultured cells, 72 hr; assay type: cell-based, bovine
Description: BCE (Folkman et al. 1979), BAE, BxPC-3 (ATCC, Bethesda, Md.), HT1080 (Jiang et al., 1999), 3T3 (ATCC, Bethesda, Md.) and BVSM (Hogg et al., 1997) cells were harvested and cultured as indicated. Cells (0.5 mL of 30,000 or 100,000 cells per mL) were seeded into gelatinized 24-well culture plates (Corning Costar, Corning, N.Y.) in Dulbecco's Modified Eagle's Medium (DMEM, JHR Bioscience, Lenexa, Kans.) containing 10% fetal calf serum (FCS, Intergen Comp., Purchase, N.Y.) and 1% Glutamine Pen-Strep (GPS, Irvine Scientific, Santa Ana, Va.) and allowed to attach for 24 hr in 10% CO2 at 37° C. The media was then replaced with DMEM and 1% GPS containing 0 to 1 mM GSAO or GSAA and either 5% bovine calf serum (BCS, HyClone, Logan, Utah) and 1 ng per mL FGF-2 (Genzyme, Cambridge, Mass.) or 5% BCS and 10 ng per mL VEGF (Genzyme, Cambridge, Mass.) for BCE cells, 5% or 10% BCS for BAE cells, 5% BCS for BVSM cells, and 5% FCS for BxPC-3, HT1080 and 3T3 cells. Cells were cultured for 0 to 72 hr in 10% CO2 at 37° C. then dispersed in trypsin/EDTA (GibcoBRL, Granc Island, N.Y.), resuspended in Coulter balanced electrolyte solution and counted with a Z1 Coulter counter (Coulter Corp., Miami, Fla.) in all experiments there were two control wells containing DMEM with 1% GPS and either 5% BCS for BCE cells, 2% BCS for BAE and BVSM cells, or 2% FCS for BxPC-3, HT1080 and 3T3 cells. […]

BCE [2] = test: Viability of cultured cells, 72 hr; assay type: cell-based, bovine
Description: as §1, §2

Structure (SMILES) | effect on proliferation of BCE cells (BCE [1]; highest concentration used, 1 mM) | inhibition of the rate of Lewis lung tumour growth (Lewis lung tumours) | effect on viability of BAE cells (BAE; not shown) | effect on viability of BCE cells (BCE [2]; 0 to 1 mM) | IC50 (BCE [1]; 5% BCS + 1 ng/mL FGF-2) | IC50 (BCE [1]; 5% BCS + 10 ng/mL VEGF) | GSAO/GSAA Lewis lung tumour volume ratio (Lewis lung tumours; day 12 of treatment) | IC50 (BAE; Bos taurus, 72 h, 10% BCS, >90% confluent) | time dependence of the decrease in viability (BCE [2]; 10 μM, 1 ng per mL FGF-2, up to 48 hr) | IC50 (BCE [2]; 5% BCS + 10 ng/mL VEGF, >90% confluent, 72 hr)
N[C@@H](CCC(=O)N[C@@H](CSCC(=O)Nc1ccc([As](=O)(O)O)cc1)C(=O)NCC(=O)O)C(=O)O [GSAA, 4-(N-(S-glutathionylacetyl)amino)phenylarsonic acid, reference compound] | only a marginal effect on proliferation | no effect | did not effect either proliferation or viability | no significant effect on viability |  |  |  |  |  | 
NC(CCC(=O)NC(CSCC(=O)Nc1ccc([As]=O)cc1)C(=O)NCC(=O)O)C(=O)O (centres unmarked) [GSAO, 4-(N-(S-glutathionylacetyl)amino)-phenylarsenoxide] |  | ~70% |  |  | ~100 nM | ~50 nM | 0.29 | ~10000 nM | no decrease in viability after 8 hours | ~3000 nM
